In ChEMBL document CHEMBL1151451 (Antimicrob Agents Chemother, 2007):
≈ marks a conversion by molar mass, not a printed value.

Key:
[1] = AUC (0 to 24 hrs) in CD-1 mouse at […] administered through gavage; format: ADME, organism-based; conditions: plasma, po
[2] = test system: Mycobacterium tuberculosis; test: Antimicrobial activity against Mycobacterium tuberculosis H37Rv infected in CD-1 mouse lung at 75 mg/kg administered through gavage; format: functional
[3] = test system: Mycobacterium tuberculosis; format: functional
[4] = Drug level in CD-1 mouse serum at […] administered through gavage after 24 hrs; format: ADME; conditions: po, read-out: Drug uptake
[5] = test system: Mycobacterium tuberculosis; test: Antimicrobial activity against avirulent Mycobacterium tuberculosis H37Ra
[6] = test system: Mycobacterium tuberculosis; format: functional; remark: listed apart in the source
[7] = test system: Mycobacterium tuberculosis; test: Antimicrobial activity against Mycobacterium tuberculosis H37Rv infected in CD-1 mouse lung; format: functional
[8] = AUC in human at 400 mg, po; format: ADME, organism-based; conditions: plasma

## COc1c(N2C[C@@H]3CCCN[C@@H]3C2)c(F)cc2c(=O)c(C(=O)O)cn(C3CC3)c12 [MOXIFLOXACIN]
[1]
  AUC(0-t): 27400 ng·h/mL
[2]
  log10cfu: 0.93
[3]
  log10cfu: 3.48
[4]
  concentration at 24 h: 8000 ng/mL
[5]
  MIC: 0.25 µg/mL (≈ 0.623 µM)
[6]
  log10cfu: 8.61
[7]
  log10cfu: 7.87
[8]
  AUC: 26900 ng·h/mL
